Biological target: T1, LATS1 (Homo sapiens, UniProt O95835)
T1 construct: endogenous in cells; host or cells: THP-1
T1 sequence (O95835 1-1130): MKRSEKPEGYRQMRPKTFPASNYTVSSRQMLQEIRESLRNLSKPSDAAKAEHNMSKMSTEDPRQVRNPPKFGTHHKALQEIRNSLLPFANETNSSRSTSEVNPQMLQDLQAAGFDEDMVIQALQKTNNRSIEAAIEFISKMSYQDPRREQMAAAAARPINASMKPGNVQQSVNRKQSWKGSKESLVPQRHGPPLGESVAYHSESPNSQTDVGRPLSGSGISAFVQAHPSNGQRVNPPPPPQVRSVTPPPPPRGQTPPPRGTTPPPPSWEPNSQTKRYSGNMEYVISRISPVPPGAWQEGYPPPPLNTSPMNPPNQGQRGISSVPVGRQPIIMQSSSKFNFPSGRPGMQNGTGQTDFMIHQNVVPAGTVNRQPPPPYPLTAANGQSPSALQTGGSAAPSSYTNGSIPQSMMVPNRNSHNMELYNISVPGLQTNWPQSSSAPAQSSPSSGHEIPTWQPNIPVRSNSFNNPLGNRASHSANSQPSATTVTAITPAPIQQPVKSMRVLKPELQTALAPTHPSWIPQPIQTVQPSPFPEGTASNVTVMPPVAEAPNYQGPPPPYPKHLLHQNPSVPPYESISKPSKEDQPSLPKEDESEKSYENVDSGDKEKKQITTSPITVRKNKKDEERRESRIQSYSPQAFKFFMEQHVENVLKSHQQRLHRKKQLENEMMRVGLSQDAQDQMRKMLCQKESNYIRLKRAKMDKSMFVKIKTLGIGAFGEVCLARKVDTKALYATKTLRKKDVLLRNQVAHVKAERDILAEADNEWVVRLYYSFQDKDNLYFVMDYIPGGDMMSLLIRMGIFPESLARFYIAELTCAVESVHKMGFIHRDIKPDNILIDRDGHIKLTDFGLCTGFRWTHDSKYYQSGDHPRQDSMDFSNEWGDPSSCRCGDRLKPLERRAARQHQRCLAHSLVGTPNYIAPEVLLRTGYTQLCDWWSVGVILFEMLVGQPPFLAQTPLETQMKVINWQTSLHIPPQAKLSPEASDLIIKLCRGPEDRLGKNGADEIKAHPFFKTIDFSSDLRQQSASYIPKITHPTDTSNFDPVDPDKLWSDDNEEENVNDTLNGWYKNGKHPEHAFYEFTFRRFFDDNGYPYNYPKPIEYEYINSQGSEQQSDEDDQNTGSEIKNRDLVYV
Test: Expression proteomics in THP-1 cells: LATS1 protein level
Format: cell-based
Conditions: LATS1, THP-1 cells
Method: THP-1 cells were seeded at a concentration of 3×10^6 cells in T175 flasks with 60 mL growth medium (RPMI1640+10% FBS). […] of a 10× compound solution prepared in growth medium (DMSO), CEREBLON_PROTAC) was added and the cells were treated for the indicated time points (6 or 24 h) at 37° C., 5% CO2. For harvesting the cells were collected into falcon tubes on ice, centrifuged and washed twice in cold PBS (Life technologies). After the last washing step the supernatant was removed and the pellets were snap-frozen in liquid N2 and stored at −80° C. and lysed in 2% SDS for 3 min at 95° C. in a thermomixer (Thermo Fisher Scientific), followed by digestion of DNA with Benzonase at 37° C. for 1.5 h. Lysate was cleared by centrifugation an protein concentration in supernatant was determined by BCA assay.
Leukemia 25, 89-100 (2011).
Samples were dried in vacuo and resuspended in 0.05% trifluoroacetic acid in water. Of the sample, 50% was injected into an Ultimate3000 nanoRLSC (Dionex, Sunnyvale, Calif.) coupled to a Q Exactive HF (Thermo Fisher Scientific). Peptides were trapped on a 5 mm×300 μm C18 column (Pepmap100, 5 μm, 300 Å, Thermo Fisher Scientific) in water with 0.05% TFA at 60° C. Separation was performed on custom 50 cm×[…] (ID) reversed-phase columns (Reprosil) at 55° C. Gradient elution was performed from 2% acetonitrile to 40% acetonitrile in 0.1% formic acid and 3.5% DMSO over 2 hours. Samples were online injected into Q-Exactive HF mass spectrometers operating with a data-dependent top 10 method. MS spectra were acquired by using 60.000 resolution and an ion target of 3×10^6. Higher energy collisional dissociation (HCD) scans were performed with 35% NCE at 30.000 resolution (at m/z 200), and the ion target settings was set to 2×10^5 so as to avoid coalescence (Werner, T. et al. Ion Coalescence of Neutron Encoded TMT 10-Plex Reporter Ions. Anal. Chem. 86, 3594-3601 (2014).
The first search was performed with 30 parts per million mass tolerance for peptide precursors and 30 mD (HCD) mass tolerance for fragment ions followed by a final search using recalibrated data with a 10 parts per million mass tolerance for peptide precursors and 20 mD (HCD) mass tolerance for fragment ions. Carbamidomethylation of cysteine residues and TMT modification of lysine residues were set as fixed modifications and methionine oxidation, and N-terminal acetylation of proteins and TMT modification of peptide N-termini were set as variable modifications. […]
Nat Biotech 29, 255-265 (2011). this measure is referred to as ion area Savitski, M. M. et al. Delayed Fragmentation and Optimized Isolation Width Settings for Improvement of Protein Identification and Accuracy of Isobaric Mass Tag Quantification on Orbitrap-Type Mass Spectrometers. […]

- log2 rel. fc. to vehicle control (24 h 0.1 μM, n = 1): −1.02
- log2 rel. fc. to vehicle control (24 h 0.1 μM, n = 2): −1.01
- log2 rel. fc. to vehicle control (24 h 1 μM, n = 1): −1.46
- log2 rel. fc. to vehicle control (24 h 1 μM, n = 2): −1.55
Structure (SMILES): CNC(=O)c1ccccc1Nc1nc(Nc2ccc(N3CCN(CCOCCOCCOCCOCC(=O)Nc4cccc5c4CN(C4CCC(=O)NC4=O)C5=O)CC3)cc2)ncc1Cl.O=CO (stereo not shown) [CEREBLON_PROTAC, 14-(4-(4-((5-Chloro-4-((2-(methylcarbamoyl)phenyl)amino)pyrimidin-2-yl)amino)phenyl)piperazin-1-yl)-N-(2-(2,6-dioxopiperidin-3-yl)-1-oxoisoindolin-4-yl)-3,6,9,12-tetraoxatetradecan-1-amide formate]
